Tests used:
renal cell carcinoma = conditions: patients with renal cell carcinoma; cited from earlier work
[1] = test system: BxPC-3 human pancreatic carcinoma cells; assay: BxPC-3 gemcitabine resistant pancreatic carcinoma xenograft in CD-1 nude mice; type: in vivo
Description: BxPC-3 human pancreatic carcinoma cells (3×10^6 cells in 100 μl of PBS) were subcutaneously injected into the right flank of 6-7 weeks old female CD-1 nude mice. BxPC-3 is a gemcitabine resistant call line. After the size of tumour reached an approximate volume of 100 mm^3, 21 days post tumour cell injection, SEQ ID NO:1 was administered by bolus infusion into the tail vein every other day at 10 mg/kg 17 times. Control animals received saline alone for the same period. Antitumour effect of SEQ ID NO:1 was further compared to that of Gemcitabine. Gemcitabine was administered intravenously every three days at a dose of 100 mg/kg. Antitumour activities were estimated by the inhibition of tumour volume, which was measured with caliper. Each point represents mean tumour volume calculated from 10 animals per experimental group. […] As expected, treatment with Gemcitabine during the same period was ineffective against Gemcitabine-resistant tumour (FIGS. 19A & B).

[2] = test system: MDA-MB-231 human breast cancer cells; assay: MDA-MB-231 breast tumour xenograft in CD-1 nude mice; type: in vivo; conditions: MDA-MB-231 (breast); Mouse CD-1
Description: MDA-MB-231 human breast cancer cells (1×10^7 cells in 100 μl of PBS) were subcutaneously injected into the right flank of 6-7 weeks old female CD-1 nude mice. After the size of tumour reached an approximate volume of 100 mm^3, 5 days post tumour cell injection, SEQ ID NO:1, or the scrambled control oligonucleotide (SEQ ID NO:3) were administered by bolus infusion into the tail vein every other day at 10 mg/kg. Control animals received saline alone for the same period. Antitumour effect of SEQ ID NO:1 was further compared to that of taxol or doxorubicin alone or in combination. Taxol was administered intravenously once a week at a dose of 10 mg/kg for three (FIG. 17A) or four weeks (FIG. 17C). Doxorubicin was administered intravenously once a week at a dose of 5 mg/kg for first three weeks (FIG. 17A) or for two weeks (FIG. 17C). All treatments were stopped at day 33 (FIG. 17A) or at day 26 (FIG. 17C), respectively. A day after the last treatment, tumours were excised from the animals and their weights were measured. […] In FIG. 17C, antitumour activities were estimated by the inhibition of tumour volume, which was measured with calipers. Each point represents mean tumour volume calculated from 10 animals per experimental group.

[3] = test system: SK-OV-3 human ovary adenocarcinoma cells; assay: SK-OV-3 ovary tumour xenograft in CD-1 nude mice; type: in vivo; conditions: SK-OV-3 (ovary); Mouse CD-1
Description: SK-OV-3 human ovary adenocarcinoma cells (1×10^7 cells in 100 μl of PBS) were subcutaneously injected into the right flank of 6-7 weeks old female CD-1 nude mice. After the size of tumour reached an approximate volume of 100 mm^3, 6 days post tumour cell injection, SEQ ID NO:1 was administered by bolus infusion into the tail vein every other day at 10 mg/kg 17 times. Control animals received saline alone for the same period. Antitumour effect of SEQ ID NO: 1 was further compared to that of taxol or cisplatin alone or in combination. Taxol was administered intravenously once a week for first three weeks and intraperitoneally once a week for next two weeks at a dose of 10 mg/kg. Cisplatin was administered intravenously once a week for first three weeks and intraperitoneally once a week for next two weeks at a dose of 4 mg/kg. All treatments were stopped at day 40. Antitumour activities were estimated by the inhibition of tumour volume, which was measured with caliper. Each point represents mean tumour volume calculated from 9 animals per experimental group.

[4] = test system: MDA-CDDP-S4 human Cisplatin-resistant breast adenocarcinoma cells; assay: MDA-CDDP-S4 Cisplatin-resistant breast adenocarcinoma, fat pad injection in SCID mice; type: in vivo; conditions: for Tumour weight as % of saline control: MDA-CDDP-S4 (breast), Cisplatin resistance, SCID
Description: MDA-CDDP-S4 human in vivo-selected Cisplatin-resistant breast adenocarcinoma cells (4×10^6 cells in 100 μl of PBS) were injected into the fat pad (inside of right leg) of 6-7 weeks old female SCID mice. After the size of tumour reached an approximate volume of 100 mm^3, 7 days post tumour cell injection, SEQ ID NO:1 was administered by bolus infusion into the tail vein every other day at 10 mg/kg 9 times. Control animals received saline alone for the same period. Antitumour effect of SEQ ID NO: 1 was further compared to that of Cisplatin or Taxol alone. Cisplatin was adminstered intravenously once a week for three weeks at a dose of 4 mg/kg. Taxol was administered intravenously once a week for three weeks at a dose of 10 mg/kg. Antitumour activities were estimated by the inhibition of tumour volume, which was measured with caliper. Each point represents mean tumour volume calculated from 10 animals per experimental group. […] As expected, treatment with Cisplatin during the same period was ineffective against Cisplatin-resistant tumour.
MDA-CDDP-S4 human in vivo-selected Cisplatin-resistant breast adenocarcinoma cells (4×10^6 cells in 100 μl of PBS) were injected into the fat pad (inside of right leg) of 6-7 weeks old female CB-17 SCID mice. After the size of tumour reached an approximate volume of 100 mm^3, 9 days post tumour cell injection, SEQ ID NO:1 was administered by bolus infusion into the tail vein every other day at 10 mg/kg. Control animals received saline alone for the same period. Antitumour effect of SEQ ID NO:1 was further compared to that of Taxol alone and in combination. Taxol was administered i.p. once a week at a dose of 10 mg/kg. Antitumour activities were estimated by the inhibition of tumour volume FIG. 22A), which was measured with calipers. Each point represents mean tumour volume calculated from 10 animals per experimental group. Animals were sacrificed and tumour weights taken at the end of the study (FIG. 22C). […] This study was repeated with similar results (FIG. 22B).

[5] = test system: MDA-MB435-To.1 human Taxol-resistant breast adenocarcinoma cells; assay: MDA-MB435-To.1 Taxol-resistant breast adenocarcinoma, fat pad injection in SCID mice; type: in vivo; design: Tumour weight as % of saline control: concentration or dose not given beside the values; conditions: for Tumour weight as % of saline control: MDA-MB435-To.1 (breast), Taxol resistance
Description: MDA-MB435-To.1 human Taxol-resistant breast adenocarcinoma cells (4×10^6 cells in […] of PBS) were injected into the fat pad (inside of right leg) of 6-7 weeks old female SCID mice. After the size of tumour reached an approximate volume of 100 mm^3, 20 days post tumour cell injection, SEQ ID NO:1 was administered by bolus infusion into the tail vein every other day at 10 mg/kg 15 times. Control animals received saline alone for the same period. Antitumour effect of SEQ ID NO:1 was further compared to that of Cisplatin or Taxol alone. Cisplatin was administered intravenously once a week for four weeks at a dose of 4 mg/kg. Taxol was administered intravenously once a week for four weeks at a dose of 20 mg/kg.
Antitumour activities were estimated by the inhibition of tumour volume, which was measured with caliper. Bach point represents mean tumour volume calculated from 9-10 animals per experimental group. […] As expected, treatment with Taxol during the same period was ineffective against Taxol-resistant tumour.
MDA-MB435-To.1 human Taxol-resistant breast adenocarcinoma cells (4×10^6 cells in 100 μl of PBS) were injected into the fat pad (inside of right leg) of 6-7 weeks old female CB-17 SCID mice. After the size of tumour reached an approximate volume of 100 mm^3, 17 days post tumour cell injection, SEQ ID NO:1 was administered by bolus infusion into the tail vein every other day at 10 mg/kg. Control animals received saline alone for the same period. Antitumour effect of SEQ ID NO:1 was compared to that of Cisplatin alone and in combination. Cisplatin was administered intravenously once a week for four weeks at a dose of 4 mg/kg. Antitumour activities were estimated by the inhibition of tumour volume, which was measured with caliper. Each point represents mean tumour volume calculated from 10 animals per experimental group. At the end of the study the animals were sacrificed and tumours weighed.

[6] = test system: Human taxol-resistant promyelocytic leukaemia cells (HL-60); assay: HL-60 taxol-resistant promyelocytic leukaemia xenograft in SCID mice; type: in vivo
Description: Human taxol-resistant promyelocytic leukaemia cells (HL-60) (7×10^6 cells in 100 μl of PBS) were injected into the right flank of 6-7 weeks old female SCID mice. After the size of tumour reached an approximate volume of 100 mm^3, 10 days post tumour cell injection, SEQ ID NO:1 was administered by bolus infusion into the tail vein every other day at 10 mg/kg. Control animals received saline alone for the same period. The anti-tumour effect of SEQ ID NO:1 was further compared to that of taxol. Taxol was administered i.p. once a week at a dose of 10 mg/kg. Anti-tumour activity was estimated by the inhibition of tumour volume, which was measured with caliper. Each point represents mean tumour volume calculated from 10 animals per experimental group. In addition animals were sacrificed and tumour weights taken at the end of the study.

[7] = test system: Hela S3 human cervix epitheloid carcinoma cells; assay: Hela S3 hydroxyurea resistant cervix carcinoma xenograft in SCID mice; type: in vivo; conditions: Hela S3 (cervix), hydroxyurea resistance; SCID
Description: Hela S3 human cervix epitheloid carcinoma cells (5×10^5 cells in 100 μl of PBS) were subcutaneously injected into the right flank of 6-7 weeks old female SCID mice. Hela S3 is a hydroxyurea resistant cell line. After the size of tumour reached an approximate volume of 100 mm^3, 3 days post tumour cell injection, SEQ ID NO:1 was administered by bolus infusion into the tail vein every other day at 10 mg/kg 6 times. Control animals received saline alone for the same period. Antitumour effect of SEQ ID NO:1 was further compared to that of Hydroxyurea or Cisplatin alone or in combination. Hydroxyurea was administered intraperitoneally every day at a dose of 250 mg/kg for 10 days. Cisplatin was administered intravenously once a week for three weeks at a dose of 4 mg/kg. Antitumour activities were estimated by the inhibition of tumour volume, which was measured with caliper. Each point represents mean tumour volume calculated from 10 animals per experimental group. […] As expected, treatment with Hydroxyurea during the same period was ineffective against Hydroxyurea-resistant tumour.

[8] = study with Taxol and Cisplatin alone

In the case of `CC(=O)O[C@]1(C(C)=O)CC[C@H]2[C@@H]3C[C@H](C)C4=CC(=O)CC[C@]4(C)[C@H]3CC[C@@]21C` [MPA, medroxyprogesterone acetate, reference compound], the 1-year survival (renal cell carcinoma) is listed as 31%.
With `Nc1ccn([C@@H]2O[C@H](CO)[C@@H](O)C2(F)F)c(=O)n1` [Gemcitabine, reference compound] the “Tumour weight as % of saline control” value ([1]; BxPC-3 (pancreatic), Gemcitabine resistance, CD-1) was 83% and the “antitumour effect (tumour volume)” value ([1]; SEQ ID NO:1 10 mg/kg 17 times i.v., Gemcitabine 100 mg/kg i.v. every three days) was “ineffective”.
In the case of `CC(=O)O[C@H]1C(=O)[C@@]2(C)[C@H]([C@H](OC(=O)c3ccccc3)[C@]3(O)C[C@H](OC(=O)[C@H](O)[C@@H](NC(=O)c4ccccc4)c4ccccc4)C(C)=C1C3(C)C)[C@]1(OC(C)=O)CO[C@@H]1C[C@@H]2O` [Taxol, Paclitaxel, reference compound], the “Tumour weight as % of saline control” value [2] is reported as 58%, the “tumour volume data as percentage of saline control” value [3] is reported as 49% and the “Tumour weight as % of saline control” value ([4]; Taxol combination study, first of two value columns) is reported as 26%. The “Tumour weight as % of saline control” value ([4]; Taxol combination study, second of two value columns) was 61%, the “Tumour weight as % of saline control” value [4, 8] was 32% and the “antitumour effect (tumour volume)” value ([5]; Example 13.5, SEQ ID NO:1 10 mg/kg 15 times, Cisplatin 4 mg/kg, Taxol 20 mg/kg i.v. weekly for four weeks) was “ineffective”. The “Tumour weight as % of saline control” value ([5]; SCID) was 109%, the “Tumour weight as % of saline control” value ([6]; HL-60 (leukemia), Taxol resistance, SCID) was 119% and the “anti-tumour effect (tumour volume, tumour weight)” value ([6]; SEQ ID NO:1 10 mg/kg every other day, Taxol 10 mg/kg i.p. weekly) was “no effect on tumour growth or weight”.
For `N.N.[Cl][Pt][Cl]` [Cisplatin, reference compound], the “tumour volume data as percentage of saline control” value [3] was 67%, the “Tumour weight as % of saline control” value [7] was 63% and the “antitumour effect (tumour volume)” value ([4]; Example 13.3, SEQ ID NO:1 10 mg/kg 9 times, Cisplatin 4 mg/kg, Taxol 10 mg/kg i.v. weekly for three weeks) was “ineffective”. The “Tumour weight as % of saline control” value [4, 8] was 78%, the “Tumour weight as % of saline control” value ([5]; CB-17/SCID) was 56% and the “Tumour weight as % of saline control” value ([5]; SCID) was 69%.

Source: patent publication US20080311126A1, “Antisense Oligonucleotides Directed to Ribonucleotide Reducatase R2 and Uses Thereof in Combination Therapies for the Treatment of Cancer” (Genesense Technologies, Inc, priority 2004, published 2008)
